Laboratory results from ChEMBL document CHEMBL1201862, “PubChem BioAssay data set” (2004).
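Test compounds were applied to cells in 96-well plates for 48 hours at 5 doses. The concentration for 50% growth inhibition is given as GI50.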 Active and inactive are the calls of the source. Cut-off read from the data, not from the text of the source: active = GI50 up to about 1.1 µM and inactive = higher.

Experiments:
Assay in all cases: NCI anticancer screen, dose series, 48 h
T47D = tested on: T47D
M14 = tested on: M14
CAKI-1 = tested on: CAKI-1
SF-295 = tested on: SF-295
UO-31 = tested on: UO-31
DU-145 = tested on: DU-145
HOP-92 = tested on: HOP-92
HCC 2998 = tested on: HCC 2998
SNB-75 = tested on: SNB-75
PC-3 = tested on: PC-3
Hs-578T = tested on: Hs-578T
LOX IMVI = tested on: LOX IMVI
K562 = tested on: K562
SK-MEL-28 = tested on: SK-MEL-28
A549 = tested on: A549
RXF 393 = tested on: RXF 393
SK-OV-3 = tested on: SK-OV-3
NCI-H23 = tested on: NCI-H23
NCI-H460 = tested on: NCI-H460
RPMI-8226 = tested on: RPMI-8226

SMILES	GI50 (T47D)	GI50 (M14)	GI50 (CAKI-1)	GI50 (SF-295)	GI50 (UO-31)	GI50 (DU-145)	GI50 (HOP-92)	GI50 (HCC 2998)	GI50 (SNB-75)	GI50 (PC-3)	GI50 (Hs-578T)	GI50 (LOX IMVI)	GI50 (K562)	GI50 (SK-MEL-28)	GI50 (A549)	GI50 (RXF 393)	GI50 (SK-OV-3)	GI50 (NCI-H23)	GI50 (NCI-H460)	GI50 (RPMI-8226)
COc1cccc2c(Nc3ccc(S(=O)(=O)NC(C)=O)cc3)c3ccc([N+](=O)[O-])cc3nc12	94.4 µM (inactive)	53.1 µM (inactive)	65.6 µM (inactive)	> 88.3 µM (inactive)	12.4 µM (inactive)	> 70.3 µM (inactive)	26.2 µM (inactive)	44.9 µM (inactive)	8.28 µM (inactive)	20.4 µM (inactive)	32.3 µM (inactive)	37.2 µM (inactive)	22 µM (inactive)	> 48.4 µM (inactive)	39.4 µM (inactive)	97.9 µM (inactive)	> 100 µM (inactive)	35.2 µM (inactive)	32.3 µM (inactive)	16.3 µM (inactive)
CC(C)=CCc1c(O)c(CC=C(C)C)c2oc3c(c(=O)c2c1O)C(C=C(C)C)Oc1cc(O)ccc1-3 (centres undefined)	3.5 µM (inactive)	7.69 µM (inactive)	5.87 µM (inactive)	5.97 µM (inactive)	4.19 µM (inactive)	10.4 µM (inactive)	13.5 µM (inactive)		4.07 µM (inactive)	5.41 µM (inactive)	12 µM (inactive)	5.15 µM (inactive)	3.98 µM (inactive)	7.53 µM (inactive)	5.2 µM (inactive)	3.12 µM (inactive)	14.7 µM (inactive)	4.67 µM (inactive)	4.49 µM (inactive)	3.76 µM (inactive)
COc1cccc(/C=N/NC(=O)CSCC(=O)N/N=C/c2cccc(OC)c2OC)c1OC	> 100 µM (inactive)	> 100 µM (inactive)	> 100 µM (inactive)	> 100 µM (inactive)	> 100 µM (inactive)	> 100 µM (inactive)	> 100 µM (inactive)	> 100 µM (inactive)	> 100 µM (inactive)	> 100 µM (inactive)	37.7 µM (inactive)		> 100 µM (inactive)	> 100 µM (inactive)	> 100 µM (inactive)	> 100 µM (inactive)	> 100 µM (inactive)	> 100 µM (inactive)	> 100 µM (inactive)	> 100 µM (inactive)
O=c1c2cccnc2n2n1Cc1ccccc1C2	> 100 µM (inactive)		> 100 µM (inactive)	> 100 µM (inactive)	> 100 µM (inactive)	> 100 µM (inactive)	> 100 µM (inactive)	> 100 µM (inactive)	> 100 µM (inactive)	> 100 µM (inactive)	> 100 µM (inactive)	> 100 µM (inactive)	> 100 µM (inactive)	> 100 µM (inactive)	> 100 µM (inactive)	> 100 µM (inactive)	> 100 µM (inactive)	> 100 µM (inactive)	> 100 µM (inactive)	> 100 µM (inactive)
O=C1c2ccc3c4ccc5c6c(ccc(c7ccc(c2c37)C(=O)N1CCN1CCCCC1)c64)C(=O)N(CCN1CCCCC1)C5=O	> 100 µM (inactive)	> 100 µM (inactive)	> 100 µM (inactive)	> 100 µM (inactive)	> 100 µM (inactive)	> 100 µM (inactive)	> 100 µM (inactive)	> 100 µM (inactive)		> 100 µM (inactive)	> 100 µM (inactive)	> 100 µM (inactive)	> 100 µM (inactive)	> 100 µM (inactive)	> 100 µM (inactive)	> 100 µM (inactive)	> 100 µM (inactive)	> 100 µM (inactive)	> 100 µM (inactive)	> 100 µM (inactive)
CC(=O)O[C@H]1[C@@H](OC2CCCC2(c2ccccc2)c2ccccc2)O[N+]([O-])=C[C@@]12COCc1cc3c(cc12)OCO3 (some centres undefined)	4.23 µM (inactive)	11.2 µM (inactive)	4.32 µM (inactive)	5.25 µM (inactive)	4.42 µM (inactive)	6.32 µM (inactive)	5.13 µM (inactive)	3.25 µM (inactive)	4.11 µM (inactive)	4.2 µM (inactive)	2.65 µM (inactive)	2.72 µM (inactive)	2.92 µM (inactive)	6.78 µM (inactive)	8.57 µM (inactive)	5.74 µM (inactive)	30.1 µM (inactive)	13.2 µM (inactive)	7.06 µM (inactive)	
C/C(=N\NC(=S)NCc1ccccc1)c1nc2cccnc2[nH]1	9.1 µM (inactive)	6.01 µM (inactive)	6.52 µM (inactive)	6.41 µM (inactive)	1.94 µM (inactive)	4.84 µM (inactive)	4.37 µM (inactive)	20.1 µM (inactive)	20.2 µM (inactive)	8.95 µM (inactive)	18.3 µM (inactive)	6.12 µM (inactive)	5.35 µM (inactive)	14.6 µM (inactive)	6.38 µM (inactive)		10.4 µM (inactive)	12.8 µM (inactive)	4.29 µM (inactive)	11.5 µM (inactive)
N#CC1(C#N)[C@@H]2CCC=C(Sc3ccccc3)[C@@H]21	22.1 µM (inactive)	13.2 µM (inactive)	13.6 µM (inactive)	16.5 µM (inactive)		16 µM (inactive)	14.9 µM (inactive)	16.7 µM (inactive)	20.9 µM (inactive)	14.3 µM (inactive)	> 100 µM (inactive)	13.9 µM (inactive)	6.71 µM (inactive)	15 µM (inactive)	23.4 µM (inactive)	13 µM (inactive)	19.5 µM (inactive)		19.5 µM (inactive)	12.9 µM (inactive)
Cc1ccc(O)c(Cc2nc3ccccc3nc2-c2cccc(Cl)c2)c1	79.8 µM (inactive)	> 100 µM (inactive)	52.7 µM (inactive)	> 100 µM (inactive)	32.1 µM (inactive)	> 100 µM (inactive)	12.5 µM (inactive)	36.1 µM (inactive)		42 µM (inactive)	30.6 µM (inactive)	36.8 µM (inactive)	28.5 µM (inactive)		43.9 µM (inactive)	> 100 µM (inactive)	> 100 µM (inactive)	69.3 µM (inactive)	54.3 µM (inactive)	22.5 µM (inactive)
O=C1CNC(=O)/C(=C/c2c[nH]c3ccccc23)N1	> 100 µM (inactive)	> 100 µM (inactive)	> 100 µM (inactive)	> 100 µM (inactive)	> 100 µM (inactive)	> 100 µM (inactive)	> 100 µM (inactive)	> 100 µM (inactive)		> 100 µM (inactive)	> 100 µM (inactive)	> 100 µM (inactive)	> 100 µM (inactive)	> 100 µM (inactive)	> 100 µM (inactive)	> 100 µM (inactive)	> 100 µM (inactive)	> 100 µM (inactive)	> 100 µM (inactive)	> 100 µM (inactive)
CCN1CCC(O)(c2ccc(Oc3ccc(F)cc3)cc2)C(C(=O)c2ccc(Oc3ccc(F)cc3)cc2)C1 (centres undefined)	13.4 µM (inactive)	16.9 µM (inactive)	13 µM (inactive)	15.7 µM (inactive)		12.2 µM (inactive)	11.9 µM (inactive)	11.4 µM (inactive)	15.5 µM (inactive)	13.4 µM (inactive)	17.2 µM (inactive)	11.8 µM (inactive)	12.7 µM (inactive)	15.8 µM (inactive)	15 µM (inactive)	12.2 µM (inactive)	17.8 µM (inactive)	14.8 µM (inactive)		2.79 µM (inactive)
Cc1ccc(O)c(C(c2cc(C)ccc2O)c2cc([N+](=O)[O-])ccc2O)c1	16.9 µM (inactive)	11 µM (inactive)	12.2 µM (inactive)	16.7 µM (inactive)	7.74 µM (inactive)	17.3 µM (inactive)	14.8 µM (inactive)	12.4 µM (inactive)	5.46 µM (inactive)	9.02 µM (inactive)	7.71 µM (inactive)	31.7 µM (inactive)	23.1 µM (inactive)	5.73 µM (inactive)	12.1 µM (inactive)	17.8 µM (inactive)	17.7 µM (inactive)	12.4 µM (inactive)		13.7 µM (inactive)
CCN(CC)CCCNc1ccc([N+](=O)[O-])c2nc3ccccc3c(N)c12	0.867 µM (active)	1.08 µM (active)	4.32 µM (inactive)	0.581 µM (active)	1.57 µM (inactive)	1.05 µM (active)	1.43 µM (inactive)		1.19 µM (inactive)	0.804 µM (active)	0.257 µM (active)	0.482 µM (active)	0.478 µM (active)	3.98 µM (inactive)	0.537 µM (active)	0.37 µM (active)	1.51 µM (inactive)	0.828 µM (active)	0.379 µM (active)	0.555 µM (active)
CC(=O)O/C(=C(/C#N)C(=O)O)C1C(C(=O)O)C(c2ccccc2[N+](=O)[O-])C=C(c2ccco2)N1c1ccncc1 (centres undefined)	6.73 µM (inactive)	2.87 µM (inactive)	4.3 µM (inactive)	7.67 µM (inactive)	2.87 µM (inactive)	8.49 µM (inactive)	16 µM (inactive)	4.97 µM (inactive)	6.38 µM (inactive)	6.4 µM (inactive)	8.93 µM (inactive)	1.91 µM (inactive)	2.31 µM (inactive)	10.4 µM (inactive)	3.41 µM (inactive)		11.6 µM (inactive)	5.45 µM (inactive)	6.35 µM (inactive)	1.68 µM (inactive)
